Data taken from the supplement of paper PMC10307832.

How the values were obtained:
Test in all cases: relative viability (nuclei count vs DMSO), 5 days (fraction); higher = more cells survive
Idelalisib + Pictilisib = compound: CC[C@H](Nc1ncnc2[nH]cnc12)c1nc2cccc(F)c2c(=O)n1-c1ccccc1 [Idelalisib] + CS(=O)(=O)N1CCN(Cc2cc3nc(-c4cccc5[nH]ncc45)nc(N4CCOCC4)c3s2)CC1 [Pictilisib] (partner 1 µM)
Outline: (§1)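 Medians of duplicate plates are given as relative viability. That measure is the nuclei count in treated wells divided by the count in vehicle wells. Counts were taken on 4× images of lung cancer cell lines in 1536-well plates, 5 days after pin-tool dosing the day after seeding with one drug alone or a fixed anchor-drug dose plus five library-drug doses (not always all listed) in √10 steps.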

Pemetrexed + Trametinib = compound: Nc1nc2[nH]cc(CCc3ccc(C(=O)N[C@@H](CCC(=O)O)C(=O)O)cc3)c2c(=O)[nH]1 [Pemetrexed] + CC(=O)Nc1cccc(-n2c(=O)n(C3CC3)c(=O)c3c(Nc4ccc(I)cc4F)n(C)c(=O)c(C)c32)c1 [Trametinib] (partner 0.02 µM)
Outline: as §1

Pemetrexed + Olaparib = compound: Nc1nc2[nH]cc(CCc3ccc(C(=O)N[C@@H](CCC(=O)O)C(=O)O)cc3)c2c(=O)[nH]1 [Pemetrexed] + O=C(c1cc(Cc2n[nH]c(=O)c3ccccc23)ccc1F)N1CCN(C(=O)C2CC2)CC1 [Olaparib] (partner 8 µM)
Outline: as §1

Pemetrexed + Alpelisib = compound: Nc1nc2[nH]cc(CCc3ccc(C(=O)N[C@@H](CCC(=O)O)C(=O)O)cc3)c2c(=O)[nH]1 [Pemetrexed] + Cc1nc(NC(=O)N2CCC[C@H]2C(N)=O)sc1-c1ccnc(C(C)(C)C(F)(F)F)c1 [Alpelisib] (partner 2 µM)
Outline: as §1

Cell Line | relative viability (Idelalisib + Pictilisib; first compound 0.04 µM) | relative viability (Idelalisib + Pictilisib; first compound 0.1265 µM) | relative viability (Idelalisib + Pictilisib; first compound 0.4 µM) | relative viability (Idelalisib + Pictilisib; first compound 1.265 µM) | relative viability (Idelalisib + Pictilisib; first compound 4 µM) | relative viability (Pemetrexed + Trametinib; first compound 0.002 µM) | relative viability (Pemetrexed + Trametinib; first compound 0.006325 µM) | relative viability (Pemetrexed + Trametinib; first compound 0.02 µM) | relative viability (Pemetrexed + Trametinib; first compound 0.06325 µM) | relative viability (Pemetrexed + Trametinib; first compound 0.2 µM) | relative viability (Pemetrexed + Olaparib; first compound 0.002 µM) | relative viability (Pemetrexed + Olaparib; first compound 0.006325 µM) | relative viability (Pemetrexed + Olaparib; first compound 0.02 µM) | relative viability (Pemetrexed + Olaparib; first compound 0.06325 µM) | relative viability (Pemetrexed + Olaparib; first compound 0.2 µM) | relative viability (Pemetrexed + Alpelisib; first compound 0.002 µM) | relative viability (Pemetrexed + Alpelisib; first compound 0.006325 µM) | relative viability (Pemetrexed + Alpelisib; first compound 0.02 µM) | relative viability (Pemetrexed + Alpelisib; first compound 0.06325 µM) | relative viability (Pemetrexed + Alpelisib; first compound 0.2 µM)
PC-14 | 0.765 | 0.788 | 0.705 | 0.688 | 0.506 | 0.681 | 0.651 | 0.805 | 0.198 | 0.123 | 0.272 | 0.151 | 0.274 | 0.127 | 0.0867 | 0.897 | 0.958 | 0.931 | 0.535 | 0.158
RERF-LC-KJ | 0.493 | 0.521 | 0.581 | 0.516 | 0.53 | 0.842 | 0.856 | 0.909 | 0.736 | 0.639 | 0.956 | 0.843 | 0.973 | 0.865 | 0.612 | 1.12 | 0.774 | 0.84 | 0.868 | 0.538
SK-LU-1 | 0.553 | 0.668 | 0.532 | 0.574 | 0.552 | 0.412 | 0.478 | 0.61 | 0.402 | 0.424 | 0.405 | 0.5 | 0.58 | 0.51 | 0.455 | 0.874 | 1.02 | 1.04 | 0.931 | 1.02
SK-MES-1 | 0.377 | 0.365 | 0.355 | 0.414 | 0.36 | 0.553 | 0.568 | 0.618 | 0.559 | 0.539 | 0.603 | 0.708 | 0.821 | 0.649 | 0.627 | 0.92 | 0.732 | 1.04 | 0.864 | 0.8
SW 1573 | 0.547 | 0.523 | 0.513 | 0.668 | 0.393 | 0.511 | 0.521 | 0.572 | 0.474 | 0.577 | 0.477 | 0.45 | 0.472 | 0.423 | 0.43 | 0.826 | 0.741 | 0.723 | 0.733 | 0.76
